Consider five compounds from ChEMBL document CHEMBL5055664, “A Novel Anticancer Stem Cell Compound Derived from Pleuromutilin Induced Necroptosis of Melanoma Cells” (J Med Chem, 2021).

The nature of data set [1]: Oral bioavailability in Sprague-Dawley rat at 50 mg/kg by LC-MS/MS analysis. To be noted: in vivo. It is filed as ADME, organism-based.
The nature of data set [2]: Tmax in Sprague-Dawley rat at 20 mg/kg, iv by LC-MS/MS analysis. To be noted: in vivo. It is filed as ADME, organism-based.
The nature of data set [3]: Half life in Sprague-Dawley rat at 50 mg/kg, po by LC-MS/MS analysis. Format: ADME, organism-based. To be noted: in vivo.
Data set [4] is described as follows: Tmax in Sprague-Dawley rat at 50 mg/kg, po by LC-MS/MS analysis. Format: ADME, organism-based. To be noted: in vivo.
The nature of data set [5]: MRT (0 to t) in Sprague-Dawley rat at 20 mg/kg, iv by LC-MS/MS analysis. Format: ADME, organism-based. To be noted: in vivo.
A short description of data set [6]: Cmax in Sprague-Dawley rat at 50 mg/kg, po by LC-MS/MS analysis. Format: ADME, organism-based. To be noted: in vivo. Also noted: dose 50 mg/kg, route po.
The nature of data set [7]: Half life in Sprague-Dawley rat at 20 mg/kg, iv by LC-MS/MS analysis. It is filed as ADME, organism-based. To be noted: in vivo.
Data set [8] can be described thus: MRT (0 to t) in Sprague-Dawley rat at 50 mg/kg, po by LC-MS/MS analysis. To be noted: in vivo. It is filed as ADME, organism-based.
Data set [9] can be described thus: Cmax in Sprague-Dawley rat at 20 mg/kg, iv by LC-MS/MS analysis. To be noted: in vivo. Set-up: dose 20 mg/kg, route iv. It is filed as ADME, organism-based.
The subject of a further data set is HCT-116. Put plainly: cells. To be noted: Homo sapiens, HCT-116, 72 h.
Data set [10] has as its system A-375. In words: Cytotoxicity against human A-375 cells assessed as inhibition of cell growth measured after 72 hrs by MTT assay. It is filed as functional, cell-based. To be noted: A-375, 72 h.
A further data set relates to Escherichia coli. Put plainly: Antimicrobial activity against Escherichia coli assessed as bacterial growth inhibition. Format: functional.
Data set [11] relates to B16-F10. Put plainly: Cytotoxicity against mouse B16-F10 cells assessed as inhibition of cell growth measured after 72 hrs by MTT assay. To be noted: B16-F10, 72 h. Format: functional, cell-based.
The test system of a further data set is Bacillus subtilis. In words: Antimicrobial activity against Bacillus subtilis assessed as bacterial growth inhibition. It is filed as functional.
For the next data set, the system named is CT26. Put plainly: cells. To be noted: Mus musculus, CT26, 72 h.
The next data set has as its system 4T1. Put plainly: Cytotoxicity against mouse 4T1 cells assessed as inhibition of cell growth measured after 72 hrs by MTT assay. It is filed as functional, cell-based. To be noted: 4T1, 72 h.
Another data set relates to Kasumi 1. Put plainly: cells. To be noted: Homo sapiens, Kasumi 1, 72 h.
A further data set concerns Staphylococcus aureus. Put plainly: Antimicrobial activity against Staphylococcus aureus assessed as bacterial growth inhibition. It is filed as functional.
In data set [12] the test system is A-375. In words: Anticancer activity against human A-375 cancer stem cells assessed as CD44+CD133+ marker cells at 1.25 uM measured after 30 hrs by FITC/APC staining based flow cytometry (reference value: […]). It is filed as functional.
In data set [13] the test system is A-375. In words: Anticancer activity against human A-375 cancer stem cells assessed as CD44+CD133+ marker cells at […] measured after 30 hrs by FITC/APC staining based flow cytometry (reference value: […]). It is filed as functional. To be noted: dose 2.5 µM.
Data set [14] relates to B16-F10. Put plainly: Anticancer activity against mouse B16-F10 cancer stem cells assessed as CD44+CD24+ marker cells at 5 uM measured after 30 hrs by FITC/APC staining based flow cytometry (reference value: […]). It is filed as functional.
The subject of data set [15] is B16-F10. Put plainly: Anticancer activity against mouse B16-F10 cancer stem cells assessed as CD44+CD24+ marker cells at […] measured after 30 hrs by FITC/APC staining based flow cytometry (reference value: […]). Format: functional. To be noted: dose 2.5 µM.
The test system of data set [16] is A-375. Put plainly: Anticancer activity against human A-375 cancer stem cells assessed as CD44+CD133+ marker cells at 5 uM measured after 30 hrs by FITC/APC staining based flow cytometry (reference value: […]). Format: functional.
Data set [17] has as its system B16-F10. In words: Anticancer activity against mouse B16-F10 cancer stem cells assessed as CD44+CD24+ marker cells at 1.25 uM measured after 30 hrs by FITC/APC staining based flow cytometry (reference value: […]). Format: functional.
Data set [18] has as its system B16-F10. Put plainly: Induction of morphological changes in mouse B16-F10 cells assessed as formation of apoptotic bodies at 0.5 to […] measured after 48 hrs by AnnexinV-FITC/propidium iodide staining based flow cytometry. Format: functional, cell-based. To be noted: dose 0.5-2.5 µM.
In data set [19] the test system is B16-F10. Put plainly: Induction of secondary necrosis in mouse B16-F10 cells at 0.5 to […] measured after 48 hrs by AnnexinV-FITC/propidium iodide staining based flow cytometry. Format: functional, cell-based. To be noted: dose 0.5-2.5 µM.

In brackets after ≈: the same amount, converted by molar mass. Activity calls are given as the source filed them. No cut-off for these calls is given here.

In data set [1], `C=C[C@]1(C)C[C@@H](OC(=O)c2ccc(C(F)(F)F)cn2)[C@]2(C)[C@H](C)CC[C@]3(CC(=C)C(=O)[C@H]32)[C@@H](C)[C@@H]1OC(=O)c1ccc(C(F)(F)F)cn1` returned a bioavailability of 88%. For the same compound, the time to peak (Tmax) turned out to be 4.98 min in [2] and 2.67 h in data set [4]. In addition, the values for the half-life in data set [3] and in data set [7] were 6.54 h and 1.33 h, respectively. Moreover, the figures for the MRT last in [5] and in [8] were 2.91 h and 4.71 h, respectively. Moreover, the Cmax was 3650 ng/mL in data set [6] and 3400 ng/mL in data set [9].
With `C=C[C@]1(C)C[C@@H](OC(=O)CO)[C@]2(C)[C@H](C)CC[C@]3(CCC(=O)[C@H]32)[C@@H](C)[C@@H]1O` [PLEUROMULIN], the IC50 in the data set with HCT-116, with A-375 [10], in the data set with B16-F10 [11], with CT26, in the data set with 4T1 and in the data set with Kasumi 1 was > 100 µM throughout. Moreover, the MIC in the data set on Escherichia coli stood at 50 µg/mL (≈ 132 µM); in the data set with Bacillus subtilis, 100 µg/mL (≈ 264 µM); in the data set on Staphylococcus aureus, 10 µg/mL (≈ 26.4 µM).
Regarding `CC(=O)O[C@H]1C(=O)[C@@]2(C)[C@H]([C@H](OC(=O)c3ccccc3)[C@]3(O)C[C@H](OC(=O)[C@H](O)[C@@H](NC(=O)c4ccccc4)c4ccccc4)C(C)=C1C3(C)C)[C@]1(OC(C)=O)CO[C@@H]1C[C@@H]2O` [PACLITAXEL], the Activity in the data set with A-375 [12] is given as 18.1%; in the data set on A-375 [13] it was 19.3%; with B16-F10 [14], 24%; in the data set on B16-F10 [15], 12.5%; with A-375 [16], 20%; in the data set with B16-F10 [17], 11.3%.
In the case of `COc1cccc2c1C(=O)c1c(O)c3c(c(O)c1C2=O)C[C@@](O)(C(=O)CO)C[C@@H]3O[C@H]1C[C@H](N)[C@H](O)[C@H](C)O1`, the result with B16-F10 [18] and with B16-F10 [19] was Active.
On to `C=C[C@]1(C)C[C@@H](O)[C@]2(C)[C@H](C)CC[C@]3(CC(=C)C(=O)[C@H]32)[C@@H](C)[C@@H]1OC(=O)Cc1ccc(F)cc1`, for which the concentration for half-maximal inhibition (IC50) in the data set with HCT-116 was 9.37 µM; in the data set on A-375 [10] it was 5.73 µM; in the data set on B16-F10 [11], 2.31 µM; in the data set on CT26, > 10 µM; with 4T1, > 10 µM; with Kasumi 1, 2.45 µM.
